Where a name gives a salt, the structure may show the parent alone.
target: T1, recombinant human XT-I (Homo sapiens, UniProt Q86Y38); assay: NP library inhibitor screening, UPLC/ESI-MS/MS XT-I assay; type: biochemical; conditions: Table 2; 50 μM inhibitor; relative to control (DMSO = 100%); technical duplicates
T1 sequence (Q86Y38 252-959 limits assumed): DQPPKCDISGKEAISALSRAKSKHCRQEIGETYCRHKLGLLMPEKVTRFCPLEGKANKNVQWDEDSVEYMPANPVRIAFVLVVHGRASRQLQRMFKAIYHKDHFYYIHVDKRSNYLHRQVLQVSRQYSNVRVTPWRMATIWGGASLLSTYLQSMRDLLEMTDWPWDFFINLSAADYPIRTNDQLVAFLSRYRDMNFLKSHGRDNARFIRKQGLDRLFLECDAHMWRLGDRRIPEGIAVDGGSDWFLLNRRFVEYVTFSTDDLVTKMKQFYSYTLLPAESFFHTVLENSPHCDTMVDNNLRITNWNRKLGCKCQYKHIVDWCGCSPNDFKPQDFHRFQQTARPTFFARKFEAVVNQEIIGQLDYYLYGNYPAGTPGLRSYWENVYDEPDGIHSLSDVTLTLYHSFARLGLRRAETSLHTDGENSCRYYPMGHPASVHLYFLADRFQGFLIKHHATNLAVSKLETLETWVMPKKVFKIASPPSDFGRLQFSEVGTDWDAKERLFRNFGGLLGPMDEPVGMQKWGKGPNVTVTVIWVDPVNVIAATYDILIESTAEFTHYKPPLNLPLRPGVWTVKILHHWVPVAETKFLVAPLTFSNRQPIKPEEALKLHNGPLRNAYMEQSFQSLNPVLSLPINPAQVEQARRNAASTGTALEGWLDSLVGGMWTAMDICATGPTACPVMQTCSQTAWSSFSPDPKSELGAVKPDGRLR

First: Oxytetracycline (Terramycin) [Compound 74]
Second: COc1cc(/C=C/C(=O)CC(=O)/C=C/c2ccc(O)c(OC)c2)ccc1O [Compound 86, Curcumin]
The “XT-I Activity [%]” value of the first is lower: 17% for the first, 43% for the second.

same assay, conditions: Table S1; 50 μM inhibitor; relative to negative control containing DMSO; technical duplicates

Going from Cc1ncc([N+](=O)[O-])n1CCO [Compound 76, Metronidazole] to Nc1nc2c(ncn2COCCO)c(=O)[nH]1 [Compound 42, Aciclovir], the remaining activity at 50 µM falls from 109% to 71%.

Going from CN(C)c1cc(NC(=O)CNC(C)(C)C)c(O)c2c1C[C@H]1C[C@H]3[C@H](N(C)C)C(O)=C(C(N)=O)C(=O)[C@@]3(O)C(O)=C1C2=O [Compound 48, Tigecycline] to COc1cccc2c1C(=O)c1c(O)c3c(c(O)c1C2=O)C[C@@](O)(C(=O)CO)C[C@@H]3O[C@H]1C[C@H](N)[C@@H](O)[C@H](C)O1 [Compound 2, Epirubicin HCl], the remaining activity at 50 µM rises from 59% to 95%.

Going from CO[C@H]1/C=C/O[C@@]2(C)Oc3c(C)c(O)c4c(c3C2=O)C2=NC3(CCN(CC(C)C)CC3)NC2=C(NC(=O)/C(C)=C\C=C\[C@H](C)[C@H](O)[C@@H](C)[C@@H](O)[C@@H](C)[C@H](OC(C)=O)[C@@H]1C)C4=O [Compound 8, Rifabutin] to CO[C@H]1/C=C/O[C@@]2(C)Oc3c(C)c(O)c4c(O)c(c(/C=N/N5CCN(C)CC5)c(O)c4c3C2=O)NC(=O)/C(C)=C\C=C\[C@H](C)[C@H](O)[C@@H](C)[C@@H](O)[C@@H](C)[C@H](OC(C)=O)[C@@H]1C [Compound 41, Rifampin], the remaining activity at 50 µM falls from 112% to 77%.

Going from OC[C@H]1O[C@@H](O[C@@H]2[C@@H](CO)OC(O)(CO)[C@H]2O)[C@H](O)[C@@H](O)[C@H]1O (mixture of isomers) [Compound 16, Lactulose] to CC[C@H]1OC(=O)[C@H](C)[C@@H](O[C@H]2C[C@@](C)(OC)[C@@H](O)[C@H](C)O2)[C@H](C)[C@@H](O[C@@H]2O[C@H](C)C[C@H](N(C)C)[C@H]2O)[C@](C)(O)C[C@@H](C)C(=O)[C@H](C)[C@@H](O)[C@]1(C)O [Compound 6, Erythromycin], the remaining activity at 50 µM falls from 122% to 105%.

Compared with COc1c(N2CCNC(C)C2)c(F)cc2c(=O)c(C(=O)O)cn(C3CC3)c12 (stereo not drawn) [Compound 47, Gatifloxacin], CC(=O)NC[C@H]1CN(c2ccc(N3CCOCC3)c(F)c2)C(=O)O1 [Compound 59, Linezolid] is higher in remaining activity at 50 µM: 98% for the first, 103% for the second.

First: COC(=O)[C@H]1[C@H]2C[C@@H]3c4[nH]c5cc(OC)ccc5c4CCN3C[C@H]2C[C@@H](OC(=O)c2cc(OC)c(OC)c(OC)c2)[C@@H]1OC [Compound 38, Reserpine]
Second: COc1cc(/C=C/C(=O)CC(=O)/C=C/c2ccc(O)c(OC)c2)ccc1O [Compound 86, Curcumin]
The remaining activity at 50 µM of the first is higher: 89% for the first, 43% for the second.

Going from C[C@@H](c1ncncc1F)[C@](O)(Cn1cncn1)c1ccc(F)cc1F [Compound 70, Voriconazole] to OC(Cn1cncn1)(Cn1cncn1)c1ccc(F)cc1F [Compound 36, Fluconazole], the remaining activity at 50 µM falls from 94% to 75%.

First: Cc1nnc(NS(=O)(=O)c2ccc(N)cc2)s1 [Compound 89, Sulfamethizole]
Second: Cc1cc(NS(=O)(=O)c2ccc(N)cc2)no1 [Compound 22, Sulfamethoxazole]
The remaining activity at 50 µM of the first is lower: 111% for the first, 121% for the second.

Going from CCCCCCCCCC(=O)N[C@@H](Cc1c[nH]c2ccccc12)C(=O)N[C@H](CC(N)=O)C(=O)N[C@@H](CC(=O)O)C(=O)N[C@@H]1C(=O)NCC(=O)N[C@@H](CCCN)C(=O)N[C@@H](CC(=O)O)C(=O)N[C@H](C)C(=O)N[C@@H](CC(=O)O)C(=O)NCC(=O)N[C@H](CO)C(=O)N[C@@H]([C@H](C)CC(=O)O)C(=O)N[C@@H](CC(=O)c2ccccc2N)C(=O)O[C@@H]1C [Compound 80, Daptomycin] to CC(=O)O[C@H]1C(=O)[C@@]2(C)[C@H]([C@H](OC(=O)c3ccccc3)[C@]3(O)C[C@H](OC(=O)[C@H](O)[C@@H](NC(=O)c4ccccc4)c4ccccc4)C(C)=C1C3(C)C)[C@]1(OC(C)=O)CO[C@@H]1C[C@@H]2O [Compound 34, Paclitaxel], the remaining activity at 50 µM falls from 86% to 79%.

Going from Clc1ccc(COC(Cn2ccnc2)c2ccc(Cl)cc2Cl)c(Cl)c1 (stereo not drawn) [Compound 88, Miconazole Nitrate] to Clc1ccc(C(Cn2ccnc2)OCc2ccsc2Cl)c(Cl)c1 (stereo not drawn) [Compound 87, Tioconazole], the remaining activity at 50 µM falls from 149% to 136%.

First: O=C(N[C@H](CO)[C@H](O)c1ccc([N+](=O)[O-])cc1)C(Cl)Cl [Compound 40, Chloramphenicol]
Second: Nc1ccc(S(N)(=O)=O)cc1 [Compound 51, Sulfanilamide]
The remaining activity at 50 µM of the first is lower: 87% for the first, 118% for the second.

Compared with Nc1[nH]c(=O)ncc1F [Compound 7, Flucytosine], Nc1ccc(S(=O)(=O)Nc2ncccn2)cc1 [Compound 63, Sulfadiazine] is higher in remaining activity at 50 µM: 93% for the first, 108% for the second.

First: O=c1c(-c2ccc(O)cc2)coc2cc(O)ccc12 [Compound 10, Daidzein]
Second: O=c1c(-c2ccc(O)cc2)coc2cc(O)cc(O)c12 [Compound 58, Genistein]
The remaining activity at 50 µM of the first is higher: 115% for the first, 94% for the second.

Going from CCC(C)(C)c1ccc(CC(C)CN2C[C@@H](C)O[C@@H](C)C2)cc1 (stereo partly drawn) [Compound 29, Amorolfine HCl] to CCC(C)(C)C(=O)O[C@H]1C[C@@H](C)C=C2C=C[C@H](C)[C@H](CC[C@@H]3C[C@@H](O)CC(=O)O3)[C@H]21 [Compound 31, Simvastatin], the remaining activity at 50 µM rises from 70% to 82%.

Going from CC1=C(/C=C/C(C)=C/C=C/C(C)=C/C(=O)O)C(C)(C)CCC1 [Compound 72, Tretinoin] to CC(=O)[C@H]1CC[C@H]2[C@@H]3CCC4=CC(=O)CC[C@]4(C)[C@H]3CC[C@]12C [Compound 73, Progesterone], the remaining activity at 50 µM rises from 84% to 113%.

Going from C[C@@H]1C(=O)O[C@H]2C[C@@]34[C@H]5C[C@@H](C(C)(C)C)[C@]36[C@@H](OC(=O)[C@@H]6O)O[C@@]4(C(=O)O5)[C@]21O [Compound 95, Ginkgolide A] to C[C@@H]1CC[C@H]2[C@@H](C)C(=O)O[C@@H]3O[C@@]4(C)CC[C@@H]1[C@]32OO4 [Compound 57, Artemisinin], the remaining activity at 50 µM falls from 150% to 93%.

Going from COc1ccc2[nH]cc(CCNC(C)=O)c2c1 [Compound 56, Melatonin] to O=[N+]([O-])c1cn2c(n1)OC[C@@H](OCc1ccc(OC(F)(F)F)cc1)C2 [Compound 45, PA-824], the remaining activity at 50 µM falls from 99% to 75%.

First: CC(=O)O[C@@]12CO[C@@H]1C[C@H](O)[C@@]1(C)C(=O)[C@H](O)C3=C(C)[C@@H](OC(=O)[C@H](O)[C@@H](NC(=O)OC(C)(C)C)c4ccccc4)C[C@@](O)([C@@H](OC(=O)c4ccccc4)[C@H]21)C3(C)C [Compound 23, Docetaxel]
Second: CO[C@H]1/C=C/O[C@@]2(C)Oc3c(C)c(O)c4c(O)c(c5c(nc6cc(C)ccn65)c4c3C2=O)NC(=O)/C(C)=C\C=C\[C@H](C)[C@H](O)[C@@H](C)[C@@H](O)[C@@H](C)[C@H](OC(C)=O)[C@@H]1C [Compound 20, Rifaximin]
The remaining activity at 50 µM of the first is higher: 104% for the first, 83% for the second.

Compared with O=C(O)c1cccnc1 [Compound 19, Nicotinic Acid], C=CC1=C(C(=O)O)N2C(=O)[C@@H](NC(=O)/C(=N\O)c3csc(N)n3)[C@H]2SC1 [Compound 49, Cefdinir] is lower in remaining activity at 50 µM: 126% for the first, 72% for the second.

CO[C@H]1/C=C/O[C@@]2(C)Oc3c(C)c(O)c4c(O)c(c(/C=N/N5CCN(C6CCCC6)CC5)c(O)c4c3C2=O)NC(=O)/C(C)=C\C=C\[C@H](C)[C@H](O)[C@@H](C)[C@@H](O)[C@@H](C)[C@H](OC(C)=O)[C@@H]1C [Compound 30, Rifapentine] showed a remaining activity at 50 µM of 50%.

Going from CC(C)[C@H](N)C(=O)OCCOCn1cnc2c(=O)nc(N)[nH]c21.Cl [Compound 32, Valaciclovir HCl] to “Oxytetracycline (Terramycin) [Compound 74]”, the “XT-I Activity [%]” value falls from 74% to 17%.

Going from COc1cc(NS(=O)(=O)c2ccc(N)cc2)nc(OC)n1 [Compound 91, Sulphadimethoxine] to Ginkgolide B [Compound 69], the “XT-I Activity [%]” value falls from 132% to 100%.

First: CO[C@H]1/C=C\C=C(/C)C(=O)NC2=CC(=O)C(NCCN(C)C)=C(C[C@@H](C)C[C@H](OC)[C@H](O)[C@@H](C)/C=C(\C)[C@@H]1OC(N)=O)C2=O.Cl [Compound 12, Alvespimycin (17-DMAG) HCl]
Second: CN(N=O)C(=O)N[C@H]1C(O)O[C@H](CO)[C@@H](O)[C@@H]1O (mixture of isomers) [Compound 3, Streptozotocin (STZ)]
The “XT-I Activity [%]” value of the first is higher: 120% for the first, 101% for the second.

First: Cl.N=c1ccn2c(n1)O[C@H]1[C@H](O)[C@@H](CO)O[C@H]12 [Compound 92, Cyclocytidine HCl]
Second: NC(=O)c1cccnc1 [Compound 54, Nicotinamide (Vitamin B3)]
The “XT-I Activity [%]” value of the first is higher: 142% for the first, 116% for the second.

First: Vitamin B12 [Compound 65]
Second: C[C@@H]1C[C@H]2[C@@H]3CCC4=CC(=O)C=C[C@]4(C)[C@@]3(F)[C@@H](O)C[C@]2(C)[C@@]1(O)C(=O)CO [Compound 25, Dexamethasone (DHAP)]
The “XT-I Activity [%]” value of the first is lower: 94% for the first, 106% for the second.

Reference: PMC7589200, “Identification of Putative Non-Substrate-Based XT-I Inhibitors by Natural Product Library Screening” (Biomolecules, 2020)
